Measurements taken from US10844077B2, “Thiazolyl-containing compounds for treating proliferative diseases” (Dana-Farber Cancer Institute, Inc., priority 2014, dated 2020).
Where “and” joins values, the source holds several entries; their conditions need not be identical. Identical values can stand only once.

How the values were obtained:
Type in all cases: cell-based
NDR1 = NDR1 (Homo sapiens (Human), UniProt Q15208); assay: KINATIV assay; settings: 1 μM, 90 minutes, BCWM.1 cells
Outline: (§1)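 Harvest, lyse, probe: lysates take up an ATP-biotin probe directly, and ACTIVX identifies and quantifies the kinases bound.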

kinases in BCWM.1 cells [1] = target: kinases in BCWM.1 cells (Homo sapiens, UniProt Q96GX5); assay: KINATIV assay of compounds I-3 and I-9, lysate directly labeled with ATP-biotin probe (no GF); settings: MASTL, 1 μM, no GF
Method: (§2) The cells were harvested and lysed. […] Bound kinases were identified and quantitated by ACTIVX as described in Patricelli et al., Biochemistry, 2007, 46(2): 350-358. The compounds were tested in duplicates against duplicate or quadruplicate control samples.

kinases in BCWM.1 cells [2] = target: kinases in BCWM.1 cells (Homo sapiens, UniProt Q14680); assay: as above; settings: MELK; Lys2; 1 μM; no GF
Method: as §2

kinases in BCWM.1 cells [3] = target: kinases in BCWM.1 cells (Homo sapiens, UniProt P09769); assay: as above; settings: FGR; Activation Loop; 1 μM; no GF
Method: as §2

kinases in BCWM.1 cells [4] = target: kinases in BCWM.1 cells (Homo sapiens, UniProt P06493); assay: as above; settings: CDC2; Protein Kinase Domain; 1 μM; no GF
Method: as §2

kinases in BCWM.1 cells [5] = target: kinases in BCWM.1 cells (Homo sapiens, UniProt P31749); assay: as above; settings: AKT1; ATP Loop; 1 μM; no GF
Method: as §2

kinases in BCWM.1 cells [6] = target: kinases in BCWM.1 cells (Homo sapiens, UniProt O14965); assay: as above
Method: as §2

kinases in BCWM.1 cells [7] = target: kinases in BCWM.1 cells (Homo sapiens, UniProt Q13164); assay: as above; settings: Erk5; Lys2; 1 μM; no GF
Method: as §2

kinases in BCWM.1 cells [8] = target: kinases in BCWM.1 cells (Homo sapiens, UniProt Q13572); assay: as above; settings: ITPK1; ATP; 1 μM; no GF
Method: as §2

kinases in BCWM.1 cells [9] = target: kinases in BCWM.1 cells (Homo sapiens, UniProt Q8NB16); assay: as above; settings: MLKL; Lys1; 1 μM; no GF
Method: as §2

kinases in BCWM.1 cells [10] = target: kinases in BCWM.1 cells (Homo sapiens, UniProt Q16659); assay: as above; settings: Erk3; Lys2; 1 μM; no GF
Method: as §2

kinases in BCWM.1 cells [11] = target: kinases in BCWM.1 cells (Homo sapiens, UniProt Q15831); assay: as above; settings: LKB1; Lys2; 1 μM; no GF
Method: as §2

kinases in BCWM.1 cells [12] = target: kinases in BCWM.1 cells (Homo sapiens, UniProt O14936); assay: as above; settings: CASK; Lys1; 1 μM; no GF
Method: as §2

kinases in BCWM.1 cells [13] = target: kinases in BCWM.1 cells (Homo sapiens, UniProt O00418); assay: as above; settings: eEF2K; ATP; 1 μM; no GF
Method: as §2

kinases in BCWM.1 cells [14] = target: kinases in BCWM.1 cells (Homo sapiens, UniProt O14757); assay: as above; settings: CHK1; Lys2; 1 μM; no GF
Method: as §2

kinases in BCWM.1 cells [15] = target: kinases in BCWM.1 cells (Homo sapiens, UniProt Q9Y6E0); assay: as above; settings: MST3; Lys2; 1 μM; no GF
Method: as §2

kinases in BCWM.1 cells [16] = target: kinases in BCWM.1 cells (Homo sapiens, UniProt P45985); assay: as above; settings: MAP2K4; Lys2; 1 μM; no GF
Method: as §2

kinases in BCWM.1 cells [17] = target: kinases in BCWM.1 cells (Homo sapiens, UniProt Q13188); assay: as above; settings: MST2; Lys1; 1 μM; no GF
Method: as §2

kinases in BCWM.1 cells [18] = target: kinases in BCWM.1 cells (Homo sapiens, UniProt P54762); assay: as above; settings: EphB1; Activation Loop; 1 μM; no GF
Method: as §2

SLK = SLK (Homo sapiens (Human), UniProt Q9H2G2); assay: KINATIV assay; settings: 1 μM, 90 minutes, BCWM.1 cells
Outline: as §1

IKKb = IKKb (Homo sapiens (Human), UniProt O14920); assay: KINATIV assay; settings: 1 μM, 90 minutes, BCWM.1 cells
Outline: as §1

CDK7 = CDK7 (Homo sapiens (Human), UniProt P50613); assay: KINATIV assay; settings: 1 μM, 90 minutes, BCWM.1 cells
Outline: as §1

JAK3 domain2 = JAK3 domain2 (Homo sapiens (Human), UniProt P52333); assay: KINATIV assay; settings: 1 μM, 90 minutes, BCWM.1 cells
Outline: as §1

DNAPK = DNAPK (Homo sapiens (Human), UniProt P78527); assay: KINATIV assay; settings: 1 μM, 90 minutes, BCWM.1 cells
Outline: as §1

MAP2K1, MAP2K2 = assay: KINATIV assay; settings: 1 μM, 90 minutes, BCWM.1 cells
Outline: as §1

kinases in BCWM.1 cells [19] = target: kinases in BCWM.1 cells (Homo sapiens, UniProt Q9Y2K2); assay: KINATIV assay of compounds I-3 and I-9, lysate directly labeled with ATP-biotin probe (no GF); settings: QSK; Lys2; 1 μM, 90 min; no GF
Method: as §2

kinases in BCWM.1 cells [20] = target: kinases in BCWM.1 cells (Homo sapiens, UniProt O94806); assay: as above; settings: PKD3; Lys1; 1 μM, 90 min; no GF
Method: as §2

kinases in BCWM.1 cells [21] = target: kinases in BCWM.1 cells (Homo sapiens, UniProt O00506); assay: as above; settings: YSK1; Lys1; 1 μM, 90 min; no GF
Method: as §2

kinases in BCWM.1 cells [22] = target: kinases in BCWM.1 cells (Homo sapiens, UniProt Q02156); assay: as above; settings: PKCe; Lys2; 1 μM, 90 min; no GF
Method: as §2

kinases in BCWM.1 cells [23] = target: kinases in BCWM.1 cells (Homo sapiens, UniProt Q9UK32); assay: as above; settings: RSK4 domain1; Lys2; 1 μM, 90 min; no GF
Method: as §2

Chain of kinases in BCWM.1 cells (Homo sapiens, UniProt P54762) (P54762 18-984 limits assumed): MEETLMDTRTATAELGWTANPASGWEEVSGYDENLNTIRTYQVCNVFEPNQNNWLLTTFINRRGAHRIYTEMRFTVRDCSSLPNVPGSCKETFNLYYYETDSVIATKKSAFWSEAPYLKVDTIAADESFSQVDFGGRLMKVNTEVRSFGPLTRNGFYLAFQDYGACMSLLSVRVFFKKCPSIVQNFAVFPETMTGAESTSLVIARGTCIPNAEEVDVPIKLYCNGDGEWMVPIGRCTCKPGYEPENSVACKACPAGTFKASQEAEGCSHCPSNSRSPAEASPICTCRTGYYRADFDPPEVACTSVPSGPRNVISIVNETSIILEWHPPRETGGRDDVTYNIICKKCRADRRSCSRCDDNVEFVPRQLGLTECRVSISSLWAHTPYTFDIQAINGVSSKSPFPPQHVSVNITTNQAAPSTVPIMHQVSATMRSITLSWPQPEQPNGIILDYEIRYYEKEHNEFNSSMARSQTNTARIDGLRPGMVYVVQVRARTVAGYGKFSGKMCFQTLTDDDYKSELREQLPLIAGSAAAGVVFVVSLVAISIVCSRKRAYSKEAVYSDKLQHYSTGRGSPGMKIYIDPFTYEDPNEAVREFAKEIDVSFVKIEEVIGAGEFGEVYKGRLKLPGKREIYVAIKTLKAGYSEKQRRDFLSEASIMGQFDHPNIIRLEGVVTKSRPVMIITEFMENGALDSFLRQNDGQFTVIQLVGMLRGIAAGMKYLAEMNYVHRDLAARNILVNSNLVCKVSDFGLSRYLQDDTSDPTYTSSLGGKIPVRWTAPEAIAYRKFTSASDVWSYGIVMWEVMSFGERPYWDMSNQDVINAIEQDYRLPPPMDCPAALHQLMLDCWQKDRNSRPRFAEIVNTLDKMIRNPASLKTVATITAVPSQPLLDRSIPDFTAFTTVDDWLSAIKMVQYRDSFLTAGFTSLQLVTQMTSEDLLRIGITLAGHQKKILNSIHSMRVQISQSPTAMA
Chain of NDR1 (Q15208 whole entry): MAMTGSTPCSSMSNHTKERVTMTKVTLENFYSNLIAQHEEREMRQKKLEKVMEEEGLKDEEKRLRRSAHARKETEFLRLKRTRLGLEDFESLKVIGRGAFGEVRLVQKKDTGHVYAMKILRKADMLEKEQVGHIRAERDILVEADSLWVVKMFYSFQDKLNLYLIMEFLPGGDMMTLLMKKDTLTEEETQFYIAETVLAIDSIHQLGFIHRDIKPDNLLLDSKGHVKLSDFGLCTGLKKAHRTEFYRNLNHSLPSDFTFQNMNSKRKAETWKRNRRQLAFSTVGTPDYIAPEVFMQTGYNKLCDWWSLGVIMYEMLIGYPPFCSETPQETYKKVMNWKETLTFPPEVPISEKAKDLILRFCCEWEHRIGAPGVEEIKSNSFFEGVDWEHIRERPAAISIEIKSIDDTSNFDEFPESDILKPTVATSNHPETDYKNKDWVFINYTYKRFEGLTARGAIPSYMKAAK
Chain of kinases in BCWM.1 cells (Homo sapiens, UniProt Q13164) (Q13164 2-816 limits assumed): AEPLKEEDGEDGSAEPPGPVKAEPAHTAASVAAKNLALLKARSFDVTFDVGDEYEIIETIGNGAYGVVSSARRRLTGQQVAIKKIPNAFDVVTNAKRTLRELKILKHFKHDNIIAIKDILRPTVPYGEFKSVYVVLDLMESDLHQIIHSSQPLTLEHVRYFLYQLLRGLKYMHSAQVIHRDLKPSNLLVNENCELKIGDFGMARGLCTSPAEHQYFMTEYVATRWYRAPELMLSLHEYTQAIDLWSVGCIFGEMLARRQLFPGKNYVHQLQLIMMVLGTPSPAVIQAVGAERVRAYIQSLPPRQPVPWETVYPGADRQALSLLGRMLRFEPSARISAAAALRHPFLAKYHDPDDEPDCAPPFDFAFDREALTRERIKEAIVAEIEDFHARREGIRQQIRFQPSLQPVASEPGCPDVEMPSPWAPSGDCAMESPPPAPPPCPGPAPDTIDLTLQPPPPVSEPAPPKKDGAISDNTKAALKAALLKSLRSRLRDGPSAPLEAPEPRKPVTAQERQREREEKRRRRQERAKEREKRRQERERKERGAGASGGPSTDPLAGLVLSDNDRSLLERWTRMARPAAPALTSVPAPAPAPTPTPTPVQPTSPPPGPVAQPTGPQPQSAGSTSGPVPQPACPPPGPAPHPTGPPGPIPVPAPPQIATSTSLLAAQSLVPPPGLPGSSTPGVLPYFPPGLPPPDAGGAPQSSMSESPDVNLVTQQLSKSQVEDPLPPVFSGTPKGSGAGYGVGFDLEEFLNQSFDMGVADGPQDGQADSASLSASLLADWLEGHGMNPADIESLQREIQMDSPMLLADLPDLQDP
Chain of CDK7 (P50613 2-346): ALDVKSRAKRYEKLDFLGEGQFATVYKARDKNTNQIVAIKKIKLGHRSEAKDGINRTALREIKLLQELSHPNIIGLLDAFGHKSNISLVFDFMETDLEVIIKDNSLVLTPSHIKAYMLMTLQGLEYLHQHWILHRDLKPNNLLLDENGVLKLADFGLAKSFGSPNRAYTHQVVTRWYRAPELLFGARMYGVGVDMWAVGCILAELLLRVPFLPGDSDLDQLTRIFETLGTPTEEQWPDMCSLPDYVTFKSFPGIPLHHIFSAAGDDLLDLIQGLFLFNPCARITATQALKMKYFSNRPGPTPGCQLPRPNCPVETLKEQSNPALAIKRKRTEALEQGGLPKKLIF
Chain of CDK7 (P51946 whole entry partner): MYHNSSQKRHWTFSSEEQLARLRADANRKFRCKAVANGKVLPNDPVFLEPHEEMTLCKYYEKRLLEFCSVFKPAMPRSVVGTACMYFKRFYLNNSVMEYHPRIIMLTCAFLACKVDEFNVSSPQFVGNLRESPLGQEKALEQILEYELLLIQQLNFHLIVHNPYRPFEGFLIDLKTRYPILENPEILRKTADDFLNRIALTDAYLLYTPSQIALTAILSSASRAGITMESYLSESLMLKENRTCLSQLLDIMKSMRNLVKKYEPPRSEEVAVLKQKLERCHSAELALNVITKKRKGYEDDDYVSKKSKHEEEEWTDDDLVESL
Chain of CDK7 (P51948 whole entry partner): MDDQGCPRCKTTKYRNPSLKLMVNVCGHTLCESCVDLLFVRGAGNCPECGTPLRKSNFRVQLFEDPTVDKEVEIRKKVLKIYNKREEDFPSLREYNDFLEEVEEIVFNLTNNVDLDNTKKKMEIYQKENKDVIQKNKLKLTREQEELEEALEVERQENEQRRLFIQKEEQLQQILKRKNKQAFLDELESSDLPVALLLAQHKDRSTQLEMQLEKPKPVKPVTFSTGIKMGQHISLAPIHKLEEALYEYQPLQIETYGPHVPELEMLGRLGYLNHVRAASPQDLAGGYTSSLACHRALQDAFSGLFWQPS
Chain of IKKb (O14920 whole entry): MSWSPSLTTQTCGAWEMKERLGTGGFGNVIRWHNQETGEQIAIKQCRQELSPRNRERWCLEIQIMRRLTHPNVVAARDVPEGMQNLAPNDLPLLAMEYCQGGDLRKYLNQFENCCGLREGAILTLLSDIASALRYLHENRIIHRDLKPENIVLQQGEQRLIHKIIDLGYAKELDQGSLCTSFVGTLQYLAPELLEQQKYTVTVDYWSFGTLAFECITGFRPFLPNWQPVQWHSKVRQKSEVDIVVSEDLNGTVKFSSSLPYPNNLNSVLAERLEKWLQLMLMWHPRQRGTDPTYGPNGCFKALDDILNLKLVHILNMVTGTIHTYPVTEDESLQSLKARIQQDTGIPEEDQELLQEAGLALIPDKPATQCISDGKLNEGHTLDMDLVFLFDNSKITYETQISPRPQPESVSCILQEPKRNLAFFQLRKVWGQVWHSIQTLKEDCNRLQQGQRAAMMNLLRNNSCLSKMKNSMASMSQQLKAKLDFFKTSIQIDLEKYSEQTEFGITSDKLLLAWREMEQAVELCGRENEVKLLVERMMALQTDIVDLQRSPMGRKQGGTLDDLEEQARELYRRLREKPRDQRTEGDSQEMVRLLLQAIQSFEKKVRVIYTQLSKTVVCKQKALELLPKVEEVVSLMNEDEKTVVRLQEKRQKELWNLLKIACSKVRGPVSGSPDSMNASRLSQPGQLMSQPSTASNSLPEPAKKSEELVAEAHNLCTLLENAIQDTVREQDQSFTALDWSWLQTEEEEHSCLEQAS
Chain of kinases in BCWM.1 cells (Homo sapiens, UniProt P45985) (P45985 2-399 limits assumed): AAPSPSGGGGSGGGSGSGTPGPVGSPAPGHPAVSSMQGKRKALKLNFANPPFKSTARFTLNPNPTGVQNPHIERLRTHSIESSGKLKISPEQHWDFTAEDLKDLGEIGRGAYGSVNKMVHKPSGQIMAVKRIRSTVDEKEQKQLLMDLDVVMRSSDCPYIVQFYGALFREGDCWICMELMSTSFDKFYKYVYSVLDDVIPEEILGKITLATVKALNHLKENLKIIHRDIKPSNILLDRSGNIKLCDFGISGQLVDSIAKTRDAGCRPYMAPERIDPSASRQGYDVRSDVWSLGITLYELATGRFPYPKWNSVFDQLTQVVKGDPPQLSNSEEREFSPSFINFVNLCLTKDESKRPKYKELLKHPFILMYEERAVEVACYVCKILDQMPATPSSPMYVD
Chain of kinases in BCWM.1 cells (Homo sapiens, UniProt P09769) (P09769 2-529 limits assumed): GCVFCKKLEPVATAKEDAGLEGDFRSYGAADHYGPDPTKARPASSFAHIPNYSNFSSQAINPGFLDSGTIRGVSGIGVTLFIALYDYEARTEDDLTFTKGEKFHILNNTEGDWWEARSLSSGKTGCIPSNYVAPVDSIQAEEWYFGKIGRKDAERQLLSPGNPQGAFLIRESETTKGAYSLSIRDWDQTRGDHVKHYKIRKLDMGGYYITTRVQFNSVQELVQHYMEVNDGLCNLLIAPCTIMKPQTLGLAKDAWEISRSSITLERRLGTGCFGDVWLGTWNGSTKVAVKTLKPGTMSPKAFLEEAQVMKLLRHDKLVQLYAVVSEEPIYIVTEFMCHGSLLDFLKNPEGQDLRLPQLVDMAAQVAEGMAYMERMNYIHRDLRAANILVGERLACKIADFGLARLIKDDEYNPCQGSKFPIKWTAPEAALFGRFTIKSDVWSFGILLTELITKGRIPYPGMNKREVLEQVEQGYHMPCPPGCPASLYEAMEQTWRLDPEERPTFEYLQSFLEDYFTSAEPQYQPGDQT

Structure (SMILES): C=CC(=O)N1CCC(CNc2nccc(Nc3ncc(C(=O)Nc4c(C)cccc4C)s3)n2)C1 (racemic) [Example I-8]
- % change of MS signal compared to control sample (NDR1): −0.8% and 2.2%

Structure (SMILES): C=CC(=O)N1CC[C@H](Nc2nccc(Nc3ncc(C(=O)Nc4c(C)cccc4C)s3)n2)C1 [Example I-3]
- % change of MS signal compared to control sample (kinases in BCWM.1 cells [1]; ATP Loop): 5.3% and 6%
- % change of MS signal compared to control sample (kinases in BCWM.1 cells [1]; Lys1): 16.4% and 9.8%
- % change of MS signal compared to control sample (kinases in BCWM.1 cells [2]): −12.1% and −10.6%
- % change of MS signal compared to control sample (kinases in BCWM.1 cells [3]): 95.7% and 95.4%
- % change of MS signal compared to control sample (kinases in BCWM.1 cells [4]): −0.7% and −4.3%
- % change of MS signal compared to control sample (kinases in BCWM.1 cells [5]): −20.4% and −21.9%
- % change of MS signal compared to control sample (kinases in BCWM.1 cells [6]): 12.7%
- % change of MS signal compared to control sample (kinases in BCWM.1 cells [7]): 3% and 8.3%
- % change of MS signal compared to control sample (kinases in BCWM.1 cells [8]): 8.5% and 1.5%
- % change of MS signal compared to control sample (kinases in BCWM.1 cells [9]): −5.6% and −4.6%
- % change of MS signal compared to control sample (kinases in BCWM.1 cells [10]): 23.2% and 23.8%
- % change of MS signal compared to control sample (kinases in BCWM.1 cells [11]): −11.2% and −8.7%
- % change of MS signal compared to control sample (kinases in BCWM.1 cells [12]): −1% and 0.5%
- % change of MS signal compared to control sample (kinases in BCWM.1 cells [13]): −18.9% and −27.8%
- % change of MS signal compared to control sample (kinases in BCWM.1 cells [14]): 9.7% and 5.6%
- % change of MS signal compared to control sample (kinases in BCWM.1 cells [15]): −2% and −3.8%
- % change of MS signal compared to control sample (kinases in BCWM.1 cells [16]): −3.9% and 1.1%
- % change of MS signal compared to control sample (kinases in BCWM.1 cells [17]): −12.1% and −18%
- % change of MS signal compared to control sample (kinases in BCWM.1 cells [18]): 92.9% and 95.7%

Structure (SMILES): C=CC(=O)N1CCC(Cn2ccc(Nc3ncc(C(=O)Nc4c(C)cccc4Cl)s3)n2)C1 (stereo not shown) [II-1]
- % change of MS signal compared to control sample (SLK): 0.0% and −3.6%

Structure (SMILES): C=CC(=O)N1CC[C@@H](Nc2nccc(Nc3ncc(C(=O)Nc4c(C)cccc4C)s3)n2)C1 [Example I-4]
- % change of MS signal compared to control sample (IKKb): 3.1% and 4.4%
- % change of MS signal compared to control sample (CDK7): 21.6% and 16.8%
- % change of MS signal compared to control sample (JAK3 domain2): −30.8%
- % change of MS signal compared to control sample (DNAPK): −80.8%

Structure (SMILES): C=CC(=O)N1CCCCC(Nc2nccc(Nc3ncc(C(=O)Nc4c(C)cccc4C)s3)n2)C1 (stereo not shown) [Example I-7]
- % change of MS signal compared to control sample (MAP2K1, MAP2K2): 7.4%

Structure (SMILES): CCC(=O)N1CC[C@H](Nc2nccc(Nc3ncc(C(=O)Nc4c(C)cccc4C)s3)n2)C1 [Example I-9]
- % change of MS signal compared to control sample (kinases in BCWM.1 cells [19]): −1.8%
- % change of MS signal compared to control sample (kinases in BCWM.1 cells [20]): −15.2%
- % change of MS signal compared to control sample (kinases in BCWM.1 cells [21]): −11.5%
- % change of MS signal compared to control sample (kinases in BCWM.1 cells [22]): −38.2%
- % change of MS signal compared to control sample (kinases in BCWM.1 cells [23]): 9.1%
